The target in series [1] is T1, ratBuChE (Rattus norvegicus, UniProt Q9JKC1).
T1 construct: BuChE from rat serum or human serum (Sigma Co.); from tissue; host or cells: rat serum
The series can be described thus: ratBuChE inhibition, modified Ellman's method. In kind it is biochemical.
Experimental: (§1) The AChE and BuChE inhibitory activities of the synthesised compounds were evaluated using the Ellman assay with slight modification. AChE from 5% rat cortex homogenate or human erythrocytes (Sigma Co.). BuChE from rat serum or human serum (Sigma Co.).

The target in series [2] is T2, huBuChE (Homo sapiens, UniProt P06276).
T2 construct: BuChE from rat serum or human serum (Sigma Co.); purchased Sigma Co; host or cells: human serum
The series can be described thus: biochemical. Format: biochemical. To be noted: from human serum; read-out: IC50 ± SD huBuChE.
Experimental: as §1

For series [3] the following is noted: Trolox as standard.
Experimental: The skeleton compounds naringenin and apigenin were also evaluated for comparison purposes, and vitamin E analogue Trolox was used as a standard.
The antioxidant potency of target compounds was tested using an oxygen radical absorbance capacity fluorescein (ORAC-FL) assay.
Series [4] has as its target huAChE (Homo sapiens, UniProt P22303). Kind of series: biochemical. Set-up: AChE from 5% rat cortex homogenate or human erythrocytes (Sigma Co.); purchased Sigma Co; host or cells: human erythrocytes. The following applies: for SI: Selectivity Index = IC50 (BuChE)/IC50 (AChE), human enzymes; for IC50: from human erythrocytes, read-out: IC50 ± SD huAChE. In kind it is biochemical.
Experimental: as §1

The target of series [5] is T3, ratAChE (Rattus norvegicus, UniProt P37136).
T3 construct: AChE from 5% rat cortex homogenate or human erythrocytes (Sigma Co.); from tissue; host or cells: 5% rat cortex homogenate
T3 sequence (P37136 32-614): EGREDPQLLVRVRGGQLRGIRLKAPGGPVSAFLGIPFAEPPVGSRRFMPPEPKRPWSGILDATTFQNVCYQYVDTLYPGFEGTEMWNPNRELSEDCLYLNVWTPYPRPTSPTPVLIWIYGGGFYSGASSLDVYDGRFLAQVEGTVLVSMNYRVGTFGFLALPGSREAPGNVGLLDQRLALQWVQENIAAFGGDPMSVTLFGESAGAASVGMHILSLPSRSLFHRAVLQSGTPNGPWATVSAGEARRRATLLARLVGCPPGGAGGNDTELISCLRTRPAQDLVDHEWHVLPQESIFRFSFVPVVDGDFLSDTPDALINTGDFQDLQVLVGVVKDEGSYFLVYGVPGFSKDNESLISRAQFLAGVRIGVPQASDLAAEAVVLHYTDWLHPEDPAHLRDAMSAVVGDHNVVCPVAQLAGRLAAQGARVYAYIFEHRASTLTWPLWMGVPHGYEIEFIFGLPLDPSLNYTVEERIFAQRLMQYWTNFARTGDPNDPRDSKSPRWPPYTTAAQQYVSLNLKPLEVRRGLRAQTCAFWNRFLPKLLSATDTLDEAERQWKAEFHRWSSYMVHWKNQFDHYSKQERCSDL
Kind of series: biochemical. To be noted: for SI: Selectivity Index = IC50 (BuChE)/IC50 (AChE), rat enzymes; for IC50: from 5% rat cortex homogenate.
Experimental: as §1

Series [6] deals with PC12 cells. The series can be described thus: Neuroprotective effect on H2O2-induced PC12 cells injury, MTT assay. Format: cell-based. To be noted: compound 100 μM, 100 μM H2O2, PC12 cells.

Here are results for 17 compounds from paper PMC8881077 (Journal of Enzyme Inhibition and Medicinal Chemistry, 2022).

Read-outs that look alike come from different tables or passages of the source.

T1 sequence (Q9JKC1 24-597): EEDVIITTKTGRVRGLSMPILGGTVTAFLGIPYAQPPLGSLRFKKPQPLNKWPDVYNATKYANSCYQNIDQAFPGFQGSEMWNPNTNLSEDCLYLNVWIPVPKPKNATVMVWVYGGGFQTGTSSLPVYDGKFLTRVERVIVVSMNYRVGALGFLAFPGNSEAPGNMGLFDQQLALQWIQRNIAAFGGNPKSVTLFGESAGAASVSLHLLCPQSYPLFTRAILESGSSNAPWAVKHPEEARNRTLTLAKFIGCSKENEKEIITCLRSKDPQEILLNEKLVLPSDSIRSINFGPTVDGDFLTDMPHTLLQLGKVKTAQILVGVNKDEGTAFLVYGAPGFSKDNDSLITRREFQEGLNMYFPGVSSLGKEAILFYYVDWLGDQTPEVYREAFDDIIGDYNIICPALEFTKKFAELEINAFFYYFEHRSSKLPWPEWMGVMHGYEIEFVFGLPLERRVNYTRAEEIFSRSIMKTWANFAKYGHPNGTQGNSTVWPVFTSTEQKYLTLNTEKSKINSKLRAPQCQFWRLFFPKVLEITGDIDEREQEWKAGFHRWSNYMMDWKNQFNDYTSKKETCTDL
Chain of huAChE (P22303 32-617 isoform P22303-2 limits assumed): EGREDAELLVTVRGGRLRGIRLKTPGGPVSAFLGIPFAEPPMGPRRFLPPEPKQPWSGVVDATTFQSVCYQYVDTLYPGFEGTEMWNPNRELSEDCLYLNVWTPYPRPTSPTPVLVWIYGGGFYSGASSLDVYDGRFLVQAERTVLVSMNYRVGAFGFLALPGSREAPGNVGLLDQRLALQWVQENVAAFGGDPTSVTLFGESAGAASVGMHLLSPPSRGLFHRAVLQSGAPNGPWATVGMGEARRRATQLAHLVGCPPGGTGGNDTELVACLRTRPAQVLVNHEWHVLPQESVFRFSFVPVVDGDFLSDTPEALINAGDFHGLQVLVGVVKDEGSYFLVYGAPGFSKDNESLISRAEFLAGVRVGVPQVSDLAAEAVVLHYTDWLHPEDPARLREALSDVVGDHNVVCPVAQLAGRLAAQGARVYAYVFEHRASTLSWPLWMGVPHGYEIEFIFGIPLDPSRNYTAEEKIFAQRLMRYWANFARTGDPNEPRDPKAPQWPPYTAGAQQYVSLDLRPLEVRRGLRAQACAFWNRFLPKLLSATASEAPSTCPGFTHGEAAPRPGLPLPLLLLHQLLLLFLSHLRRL
T2 sequence (P06276 29-602): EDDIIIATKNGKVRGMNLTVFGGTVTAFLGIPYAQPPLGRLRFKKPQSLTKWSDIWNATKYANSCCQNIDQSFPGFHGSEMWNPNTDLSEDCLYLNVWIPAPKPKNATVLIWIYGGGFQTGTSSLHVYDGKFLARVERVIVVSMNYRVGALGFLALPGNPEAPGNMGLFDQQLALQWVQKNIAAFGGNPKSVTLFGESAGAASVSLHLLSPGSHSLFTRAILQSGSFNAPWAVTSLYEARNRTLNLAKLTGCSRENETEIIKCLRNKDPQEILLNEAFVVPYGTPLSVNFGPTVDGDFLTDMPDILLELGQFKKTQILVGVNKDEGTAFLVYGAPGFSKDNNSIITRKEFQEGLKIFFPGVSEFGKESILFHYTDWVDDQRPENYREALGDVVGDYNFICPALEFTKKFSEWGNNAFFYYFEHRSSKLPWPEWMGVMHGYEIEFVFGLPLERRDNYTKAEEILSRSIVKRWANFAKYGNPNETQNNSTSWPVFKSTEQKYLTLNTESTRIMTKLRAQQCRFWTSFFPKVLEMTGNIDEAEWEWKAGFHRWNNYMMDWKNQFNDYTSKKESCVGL

A word on the IC50: it is the concentration at which inhibition is half-maximal. In the case of `CCN(CCCCCOc1ccc(-c2cc(=O)c3c(O)cc(OCCCCCN(CC)Cc4ccccc4)cc3o2)cc1)Cc1ccccc1` [Compound 10k, 7-((5-(benzyl(ethyl)amino)pentyl)oxy)-2–(4-((5-(benzyl(ethyl)amino)pentyl)oxy)phenyl)-5-hydroxy-4H-chromen-4-one], the concentration for half-maximal inhibition (IC50) in series [1] is 13.3 ± 0.27 µM; in series [2], 4.5 ± 0.12 µM; in series [4], 0.13 ± 0.01 µM; in series [5] (read-out: IC50 ± SD ratAChE), 0.81 ± 0.05 µM. For the same compound, in series [3], the ORAC is 1.1 ± 0.02 μM of Trolox equivalent/μM of tested compound. Moreover, the SI in series [4] was 34.6; in series [5], 16.4.

In the case of `CCN(CCCCOc1ccc(-c2cc(=O)c3c(O)cc(OCCCCN(CC)Cc4ccccc4)cc3o2)cc1)Cc1ccccc1` [Compound 10h, 7–(4-(benzyl(ethyl)amino)butoxy)-2–(4-(4-(benzyl(ethyl)amino)butoxy)phenyl)-5-hydroxy-4H-chromen-4-one], the 50% inhibitory concentration (IC50) in series [1] worked out at 12.9 ± 0.51 µM; in series [2] it was 3.7 ± 0.06 µM; in series [4] it was 0.16 ± 0.01 µM; in series [5] (read-out: IC50 ± SD ratAChE), 0.92 ± 0.06 µM. For the same compound, the ORAC in series [3] is 1.1 ± 0.03 μM of Trolox equivalent/μM of tested compound. Besides, the SI in series [4] stood at 23.1; in series [5], 14.0.

As usually defined, the cell viability is the share of living cells, or the viability signal relative to a control. The compound Vitamine E [reference compound] returned a cell viability in series [6] of 67.6%.

With `CC1CC(C)CN(CCCOc2ccc(-c3cc(=O)c4c(O)cc(OCCCN5CC(C)CC(C)C5)cc4o3)cc2)C1` (stereo not shown) [Compound 10f, 7–(3-(3,5-dimethylpiperidin-1-yl)propoxy)-2–(4-(3–(3,5-dimethylpiperidin-1-yl)propoxy)phenyl)-5-hydroxy-4H-chromen-4-one], the values for the IC50 in series [1] and in series [5] (read-out: IC50 ± SD ratAChE) were 16.7 ± 0.52 µM and 8.6 ± 0.33 µM, respectively. In addition, the ORAC in series [3] was 1.0 ± 0.04 μM of Trolox equivalent/μM of tested compound. Moreover, in series [5], the SI is listed as 1.9.

For `O=C1CC(c2ccc(O)cc2)Oc2cc(OCCCCN3CCc4ccccc4C3)cc(O)c21` (stereo not shown) [Compound 5b, 7–(4-(3,4-dihydroisoquinolin-2(1H)-yl)butoxy)-5-hydroxy-2–(4-hydroxyphenyl)chroman-4-one], the IC50 in series [1] came out at 17.4 ± 0.52 µM; in series [5] (read-out: IC50 ± SD ratAChE), 5.8 ± 0.19 µM. The ORAC in series [3] is 2.1 ± 0.04 μM of Trolox equivalent/μM of tested compound. Further, in series [5], the SI was determined as 3.0.

Turning to `O=C1CC(c2ccc(O)cc2)Oc2cc(OCCCCN3CCN(Cc4ccccc4)CC3)cc(O)c21` (stereo not shown) [Compound 5e, 7–(4-(4-benzylpiperazin-1-yl)butoxy)-5-hydroxy-2–(4-hydroxyphenyl)chroman-4-one], the values for the half-maximal inhibitory concentration (IC50) in series [1] and in series [5] (read-out: IC50 ± SD ratAChE) were 13.2 ± 0.43 µM and 9.2 ± 0.72 µM, respectively. In series [3], the ORAC was 2.5 ± 0.01 μM of Trolox equivalent/μM of tested compound. Further, in series [5], the SI came out at 1.4.

With `O=c1cc(-c2ccc(O)cc2)oc2cc(O)cc(O)c12` [apigenin, reference compound], the half-inhibitory concentration (IC50) in series [1] and in series [5] (IC50 ± SD ratAChE) was greater than 50 µM in each case. Also, the ORAC in series [3] is given as 5.6 ± 0.52 μM of Trolox equivalent/μM of tested compound.

`CCN(CCCOc1ccc(-c2cc(=O)c3c(O)cc(OCCCN(CC)Cc4ccccc4)cc3o2)cc1)Cc1ccccc1` [Compound 10b, 7–(3-(benzyl(ethyl)amino)propoxy)-2–(4-(3-(benzyl(ethyl)amino)propoxy)phenyl)-5-hydroxy-4H-chromen-4-one]: the results for the IC50 in series [1] and in series [5] (read-out: IC50 ± SD ratAChE) were 18.6 ± 0.24 µM and 4.3 ± 0.38 µM, respectively. Besides, in series [3], the ORAC is recorded as 1.0 ± 0.04 μM of Trolox equivalent/μM of tested compound. The same compound registered an SI in series [5] of 4.3.

Take `CC1CC(C)CN(CCCCCOc2ccc(-c3cc(=O)c4c(O)cc(OCCCCCN5CC(C)CC(C)C5)cc4o3)cc2)C1` (stereo not shown) [Compound 10p, 7-((5–(3,5-dimethylpiperidin-1-yl)pentyl)oxy)-2–(4-((5–(3,5-dimethylpiperidin-1-yl)pentyl)oxy)phenyl)-5-hydroxy-4H-chromen-4-one]: the figures for the IC50 in series [1] and in series [5] (read-out: IC50 ± SD ratAChE) were 13.8 ± 0.37 µM and 6.2 ± 0.54 µM, respectively. In series [3], the ORAC was 1.1 ± 0.02 μM of Trolox equivalent/μM of tested compound. The compound also came in with an SI in series [5] of 2.2.

Take `O=C1CC(c2ccc(OCCCCN3CCc4ccccc4C3)cc2)Oc2cc(OCCCCN3CCc4ccccc4C3)cc(O)c21` (stereo not shown) [Compound 7f, 7–(4-(3,4-dihydroisoquinolin-2(1H)-yl)butoxy)-2–(4-(4–(3,4-dihydroisoquinolin-2(1H)-yl)butoxy)phenyl)-5-hydroxychroman-4-one]: the 50% inhibitory concentration (IC50) in series [1] came out at 20.7 ± 0.55 µM; in series [5] (read-out: IC50 ± SD ratAChE), 5.4 ± 0.16 µM. Besides, the ORAC in series [3] was 1.1 ± 0.03 μM of Trolox equivalent/μM of tested compound. The SI in series [5] is 3.8.

On to `CCN(CCCCCCOc1ccc(C2CC(=O)c3c(O)cc(OCCCCCCN(CC)Cc4ccccc4)cc3O2)cc1)Cc1ccccc1` (stereo not shown) [Compound 7l], for which the IC50 in series [1] was determined as 15.1 ± 0.28 µM; in series [5] (read-out: IC50 ± SD ratAChE), 2.2 ± 0.13 µM. Further, in series [3], the ORAC is reported as 1.2 ± 0.01 μM of Trolox equivalent/μM of tested compound. This compound also had an SI in series [5] of 6.9.

As for `O=c1cc(-c2ccc(OCCCCCN3CCC(CCCc4ccccc4)CC3)cc2)oc2cc(OCCCCCN3CCC(CCCc4ccccc4)CC3)cc(O)c12` [Compound 10o, 5-hydroxy-7-((5–(4-(3-phenylpropyl)piperidin-1-yl)pentyl)oxy)-2–(4-((5–(4–(3-phenylpropyl)piperidin-1-yl)pentyl)oxy)phenyl)-4H-chromen-4-one], the results for the IC50 in series [1] and in series [5] (read-out: IC50 ± SD ratAChE) were 16.1 ± 0.25 µM and 4.1 ± 0.63 µM, respectively. For the same compound, the ORAC in series [3] was 1.2 ± 0.03 μM of Trolox equivalent/μM of tested compound. Moreover, in series [5], the SI was 3.9.

For `CCN(CCCCOc1cc(O)c2c(c1)OC(c1ccc(O)cc1)CC2=O)Cc1ccccc1OC` (stereo not shown) [Compound 5d, 7–(4-(ethyl(2-methoxybenzyl)amino)butoxy)-5-hydroxy-2–(4-hydroxyphenyl)chroman-4-one], the concentration for half-maximal inhibition (IC50) in series [1] came to 18.1 ± 0.56 µM; in series [5] (read-out: IC50 ± SD ratAChE) it was 2 ± 0.46 µM. Further, the ORAC in series [3] is listed as 2.2 ± 0.02 μM of Trolox equivalent/μM of tested compound. The compound also registered an SI in series [5] of 9.1.

On to `O=c1cc(-c2ccc(OCCCCCN3CCC(Cc4ccccc4)CC3)cc2)oc2cc(OCCCCCN3CCC(Cc4ccccc4)CC3)cc(O)c12` [Compound 10m, 7-((5–(4-benzylpiperidin-1-yl)pentyl)oxy)-2–(4-((5–(4-benzylpiperidin-1-yl)pentyl)oxy)phenyl)-5-hydroxy-4H-chromen-4-one], for which the 50% inhibitory concentration (IC50) in series [1] came out at 16.6 ± 0.27 µM; in series [5] (read-out: IC50 ± SD ratAChE), 1.3 ± 0.08 µM. The ORAC in series [3] is listed as 1.2 ± 0.02 μM of Trolox equivalent/μM of tested compound. Moreover, in series [5], the SI amounted to 12.8.

Turning to `O=c1cc(-c2ccc(OCCCCCCN3CCC(c4ccccc4)CC3)cc2)oc2cc(OCCCCCCN3CCC(c4ccccc4)CC3)cc(O)c12` [Compound 10t, 5-hydroxy-7-((6–(4-phenylpiperidin-1-yl)hexyl)oxy)-2–(4-((6–(4-phenylpiperidin-1-yl)hexyl)oxy)phenyl)-4H-chromen-4-one], the IC50 in series [1] amounted to 19.3 ± 0.67 µM; in series [5] (read-out: IC50 ± SD ratAChE), 5.9 ± 0.37 µM. The ORAC in series [3] is reported as 1.0 ± 0.02 μM of Trolox equivalent/μM of tested compound. In series [5], this compound had an SI of 3.3.

With `O=c1cc(-c2ccc(OCCCN3CCC(Cc4ccccc4)CC3)cc2)oc2cc(OCCCN3CCC(Cc4ccccc4)CC3)cc(O)c12` [Compound 10c, 7–(3-(4-benzylpiperidin-1-yl)propoxy)-2–(4-(3–(4-benzylpiperidin-1-yl)propoxy)phenyl)-5-hydroxy-4H-chromen-4-one], the IC50 in series [1] came out at 13.6 ± 0.67 µM; in series [5] (read-out: IC50 ± SD ratAChE) it was 5.5 ± 0.17 µM. The ORAC in series [3] was 1.2 ± 0.03 μM of Trolox equivalent/μM of tested compound. In addition, the SI in series [5] is 2.5.

Consider `O=C1CC(c2ccc(O)cc2)Oc2cc(OCCCCN3CCCCC3)cc(O)c21` (stereo not shown) [Compound 5a, 5-hydroxy-2–(4-hydroxyphenyl)-7–(4-(piperidin-1-yl)butoxy)chroman-4-one], for which the IC50 in series [1] was 20.9 ± 0.68 µM; in series [5] (read-out: IC50 ± SD ratAChE), 6.7 ± 0.31 µM. Further, the ORAC in series [3] is on record as 2.2 ± 0.03 μM of Trolox equivalent/μM of tested compound. Moreover, the SI in series [5] is listed as 3.1.
